# Paper PMC12028158, “Synthesis and In Vitro Evaluation of the Anticancer Effect of Novel Phosphonium Vindoline Derivatives” (International Journal of Molecular Sciences, 2025)
# Assays:
# Assay type in all cases: cell-based
# U251 = experiment: NCI60 one-dose screen; conditions: Homo sapiens, U-251, read-out: Growth percent
# UACC-62 [1] = experiment: NCI60 one-dose screen; conditions: Homo sapiens, UACC-62, read-out: Growth percent
# SN12C [2] = experiment: NCI60 five-dose screen; conditions: Homo sapiens
# Breast Cancer panel = experiment: NCI60 five-dose screen, panel mean; conditions: Homo sapiens, read-out: Mean GI50
# Ovarian Cancer panel = experiment: NCI60 five-dose screen, panel mean; conditions: Homo sapiens, read-out: Mean GI50
# NCI-H322M = experiment: NCI60 five-dose screen; conditions: Homo sapiens
# SNB-75 = experiment: NCI60 one-dose screen; conditions: Homo sapiens, SNB-75, read-out: Growth percent
# BT-549 [3] = experiment: NCI60 five-dose screen; conditions: Homo sapiens, BT-549
# NCI/ADR-RES [4] = experiment: NCI60 one-dose screen; conditions: Homo sapiens, read-out: Growth percent
# EKVX [5] = experiment: NCI60 five-dose screen; conditions: Homo sapiens
# SF-539 [6] = experiment: NCI60 five-dose screen; conditions: Homo sapiens, SF-539
# BT-549 [7] = experiment: NCI60 one-dose screen; conditions: Homo sapiens, BT-549, read-out: Growth percent
# HCT-15 = experiment: NCI60 five-dose screen; conditions: Homo sapiens, HCT-15
# EKVX [8] = experiment: NCI60 one-dose screen; conditions: Homo sapiens, read-out: Growth percent
# HS 578T = experiment: NCI60 five-dose screen; conditions: Homo sapiens, Hs-578T
# MALME-3M = experiment: NCI60 five-dose screen; conditions: Homo sapiens, Malme-3M
# NCI/ADR-RES [9] = experiment: NCI60 five-dose screen; conditions: Homo sapiens
# SF-268 = experiment: NCI60 five-dose screen; conditions: Homo sapiens, SF-268
# TK-10 = experiment: NCI60 five-dose screen; conditions: Homo sapiens, TK-10
# CNS Cancer panel = experiment: NCI60 five-dose screen, panel mean; conditions: Homo sapiens, read-out: Mean GI50
# SF-539 [10] = experiment: NCI60 one-dose screen; conditions: Homo sapiens, SF-539, read-out: Growth percent
# OVCAR-3 = experiment: NCI60 one-dose screen; conditions: Homo sapiens, OVCAR-3, read-out: Growth percent
# OVCAR-8 [11] = experiment: NCI60 one-dose screen; conditions: Homo sapiens, OVCAR-8, read-out: Growth percent
# NCI-H226 = experiment: NCI60 five-dose screen; conditions: Homo sapiens, NCI-H226
# RXF 393 = experiment: NCI60 one-dose screen; conditions: Homo sapiens, RXF 393, read-out: Growth percent
# UACC-257 = experiment: NCI60 one-dose screen; conditions: Homo sapiens, UACC-257, read-out: Growth percent
# Leukemia panel = experiment: NCI60 five-dose screen, panel mean; conditions: Homo sapiens, read-out: Mean GI50
# Colon Cancer panel = experiment: NCI60 five-dose screen, panel mean; conditions: Homo sapiens, read-out: Mean GI50
# SN12C [12] = experiment: NCI60 one-dose screen; conditions: Homo sapiens, read-out: Growth percent
# PC-3 = experiment: NCI60 one-dose screen; conditions: Homo sapiens, PC-3, read-out: Growth percent
# IGROV1 [13] = experiment: NCI60 one-dose screen; conditions: Homo sapiens, IGROV-1, read-out: Growth percent
# CCRF-CEM [14] = experiment: NCI60 one-dose screen; conditions: Homo sapiens, read-out: Growth percent
# OVCAR-8 [15] = experiment: NCI60 five-dose screen; conditions: Homo sapiens, OVCAR-8
# SNB-19 = experiment: NCI60 five-dose screen; conditions: Homo sapiens, SNB-19
# Prostate Cancer panel = experiment: NCI60 five-dose screen, panel mean; conditions: Homo sapiens, read-out: Mean GI50
# CAKI-1 = experiment: NCI60 one-dose screen; conditions: Homo sapiens, CAKI-1, read-out: Growth percent
# MCF7 [16] = experiment: NCI60 five-dose screen; conditions: Homo sapiens, MCF7
# IGROV1 [17] = experiment: NCI60 five-dose screen; conditions: Homo sapiens, IGROV-1
# HCT-116 = experiment: NCI60 five-dose screen; conditions: Homo sapiens, HCT-116
# HCC-2998 = experiment: NCI60 one-dose screen; conditions: Homo sapiens, HCC 2998, read-out: Growth percent
# NCI-H460 = experiment: NCI60 one-dose screen; conditions: Homo sapiens, NCI-H460, read-out: Growth percent
# RPMI-8226 = experiment: NCI60 five-dose screen; conditions: Homo sapiens, RPMI-8226
# CCRF-CEM [18] = experiment: NCI60 five-dose screen; conditions: Homo sapiens
# K-562 = experiment: NCI60 five-dose screen; conditions: Homo sapiens, K562
# MCF7 [19] = experiment: NCI60 one-dose screen; conditions: Homo sapiens, MCF7, read-out: Growth percent
# UACC-62 [20] = experiment: NCI60 five-dose screen; conditions: Homo sapiens, UACC-62
# COLO 205 = experiment: NCI60 five-dose screen; conditions: Homo sapiens, COLO 205
# SK-MEL-5 = experiment: NCI60 one-dose screen; conditions: Homo sapiens, SK-MEL-5, read-out: Growth percent
smiles,measurement,setting,value
CC[C@]12C=CCN3CC[C@@]4(c5ccc(OC)cc5N(C)[C@H]4[C@@](O)(C(=O)OC)[C@@H]1OC(=O)CCC[P+](c1ccc(F)cc1)(c1ccc(F)cc1)c1ccc(F)cc1)[C@@H]32 [9c],activity at 10 µM,U251,18.5%
same,activity at 10 µM,UACC-62 [1],-59.5%
same,GI50,SN12C [2],14.8 µM
same,GI50,Breast Cancer panel,8.04 µM
same,GI50,Ovarian Cancer panel,19 µM
same,GI50,NCI-H322M,> 48.5 µM
same,activity at 10 µM,SNB-75,39.9%
same,GI50,BT-549 [3],8.13 µM
same,activity at 10 µM,NCI/ADR-RES [4],104%
same,GI50,EKVX [5],19.4 µM
same,GI50,SF-539 [6],16.8 µM
same,activity at 10 µM,BT-549 [7],-9.4%
same,GI50,HCT-15,> 48.5 µM
same,activity at 10 µM,EKVX [8],58.1%
same,GI50,HS 578T,11.8 µM
same,GI50,MALME-3M,6.85 µM
same,GI50,NCI/ADR-RES [9],> 48.5 µM
same,GI50,SF-268,15 µM
same,GI50,TK-10,22.2 µM
same,GI50,CNS Cancer panel,20.2 µM
same,activity at 10 µM,SF-539 [10],24.2%
same,activity at 10 µM,OVCAR-3,21.1%
same,activity at 10 µM,OVCAR-8 [11],28%
same,GI50,NCI-H226,24.2 µM
same,activity at 10 µM,RXF 393,-10.4%
same,activity at 10 µM,UACC-257,-34.3%
same,GI50,Leukemia panel,7.25 µM
same,GI50,Colon Cancer panel,16.8 µM
same,activity at 10 µM,SN12C [12],16.6%
same,activity at 10 µM,PC-3,16.7%
same,activity at 10 µM,IGROV1 [13],-15%
same,activity at 10 µM,CCRF-CEM [14],20%
same,GI50,OVCAR-8 [15],18.4 µM
same,GI50,SNB-19,11.4 µM
same,GI50,Prostate Cancer panel,18.2 µM
same,activity at 10 µM,CAKI-1,73.1%
same,GI50,MCF7 [16],8.26 µM
same,GI50,IGROV1 [17],7.09 µM
same,GI50,HCT-116,14.8 µM
same,activity at 10 µM,HCC-2998,22.4%
same,activity at 10 µM,NCI-H460,30.9%
same,GI50,RPMI-8226,2.05 µM
same,GI50,CCRF-CEM [18],12.7 µM
same,GI50,K-562,9.83 µM
same,activity at 10 µM,MCF7 [19],7.7%
same,GI50,UACC-62 [20],6.05 µM
same,GI50,COLO 205,4.98 µM
same,activity at 10 µM,SK-MEL-5,-38.3%
CC[C@]12C=CCN3CC[C@@]4(c5ccc(OC)cc5N(C)[C@H]4[C@@](O)(C(=O)OC)[C@@H]1OC(=O)CCC[P+](C1CCCCC1)(C1CCCCC1)C1CCCCC1)[C@@H]32 [9d],activity at 10 µM,U251,-82.5%
same,activity at 10 µM,UACC-62 [1],-97.3%
same,GI50,SN12C [2],2.89 µM
same,GI50,Breast Cancer panel,1.54 µM
same,GI50,Ovarian Cancer panel,7.12 µM
same,GI50,NCI-H322M,5.79 µM
same,activity at 10 µM,SNB-75,-61.4%
same,GI50,BT-549 [3],2.44 µM
same,activity at 10 µM,NCI/ADR-RES [4],100%
same,GI50,EKVX [5],3.09 µM
same,GI50,SF-539 [6],2.94 µM
same,activity at 10 µM,BT-549 [7],-97.4%
same,GI50,HCT-15,15.3 µM
same,activity at 10 µM,EKVX [8],15.4%
same,GI50,HS 578T,2.45 µM
same,GI50,MALME-3M,1.46 µM
same,GI50,NCI/ADR-RES [9],35.6 µM
same,GI50,SF-268,3.23 µM
same,GI50,TK-10,2.73 µM
same,GI50,CNS Cancer panel,2.71 µM
same,activity at 10 µM,SF-539 [10],-86.5%
same,activity at 10 µM,OVCAR-3,-48.6%
same,activity at 10 µM,OVCAR-8 [11],1.19%
same,GI50,NCI-H226,4.06 µM
same,activity at 10 µM,RXF 393,-70.3%
same,activity at 10 µM,UACC-257,-80.9%
same,GI50,Leukemia panel,1.2 µM
same,GI50,Colon Cancer panel,3.82 µM
same,activity at 10 µM,SN12C [12],-40.5%
same,activity at 10 µM,PC-3,-12%
same,activity at 10 µM,IGROV1 [13],-86%
same,activity at 10 µM,CCRF-CEM [14],-40.9%
same,GI50,OVCAR-8 [15],2.97 µM
same,GI50,SNB-19,2.22 µM
same,GI50,Prostate Cancer panel,2.73 µM
same,activity at 10 µM,CAKI-1,-8.49%
same,GI50,MCF7 [16],1.19 µM
same,GI50,IGROV1 [17],1.39 µM
same,GI50,HCT-116,2.85 µM
same,activity at 10 µM,HCC-2998,-92.6%
same,activity at 10 µM,NCI-H460,4.64%
same,GI50,RPMI-8226,0.383 µM
same,GI50,CCRF-CEM [18],1.69 µM
same,GI50,K-562,1.32 µM
same,activity at 10 µM,MCF7 [19],-72.2%
same,GI50,UACC-62 [20],1.41 µM
same,GI50,COLO 205,0.43 µM
same,activity at 10 µM,SK-MEL-5,-98.4%
